Measurements: patent publication US5512553A, “7-(substituted)-8-(substituted)-9-(substituted amino)-6-demethyl-6-deoxytetracyclines” (American Cyanamid Company, priority 1995, dated 1996)
Where a name gives a salt, the structure may show the parent alone. Read-outs that look alike come from different tables or passages of the source.

Columns and labels:
[1] = system: Staphylococcus aureus strain Smith (tetracycline sensitive); experiment: In vivo antibacterial evaluation, acute lethal infection in mice; settings: 168 h, female mice CD-1, intraperitoneal challenge with S. aureus Smith, dosed subcutaneously or orally 30 minutes after infection, 7 day survival ratios
Method: In Vivo Antibacterial Evaluation (Table III)
The therapeutic effects of tetracyclines are determined against an acute lethal infection with Staphylococcus aureus strain Smith (tetracycline sensitive). Female, mice, strain CD-1 (Charles River Laboratories), 20±2 grams, are challenged by an intraperitoneal injection of sufficient bacteria (suspended in hog mucin) to kill non-treated controls within 24-48 hours. Antibacterial agents, contained in 0.5 ml of 0.2% aqueous agar, are administered subcutaneously or orally 30 minutes after infection. When an oral dosing schedule is used, animals are deprived of food for 5 hours before and 2 hours after infection. Five mice are treated at each dose level. The 7 day survival ratios from 3 separate tests are pooled for calculation of median effective dose (ED50).

[2] = system: S. aureus ATCC 29213 (sensitive); experiment: In vitro antibacterial evaluation, MIC by agar dilution; type: cell-based; settings: Staphylococcus aureus
Method: (§1) Method for In Vitro Antibacterial Evaluation (Table I)
(§2) The minimum inhibitory concentration (MIC), the lowest concentration of the antibiotic which inhibits growth of the test organism, is determined by the agar dilution method using Muller-Hinton II agar (Baltimore Biological Laboratories). An inoculum density of 1-5×10^5 CFU/ml and an antibiotic concentration (32-≤0.015 μg/ml) is used. The plates are incubated for 18 hours at 35° C. in a forced air incubator. The test organisms comprise strains sensitive to tetracycline and genetically defined strains that are resistant to tetracycline, due to inability to bind bacterial ribosomes (tetM).

E. coli ATCC 25922 = experiment: as above; type: cell-based; settings: Escherichia coli
Method: as §1, §2

[3] = system: S. aureus UBMS 90-3 (sensitive); experiment: as above; type: cell-based; settings: Staphylococcus aureus, 18 h
Method: as §1, §2

Enteroc. spp. 12201 = experiment: as above; type: cell-based; settings: 18 h
Method: as §1, §2

[4] = system: S. aureus IVES 2943 (meth. resistant); experiment: as above; type: cell-based; settings: Staphylococcus aureus, 18 h
Method: as §1, §2

[5] = system: S. aureus IVES 1983 (MP) (meth. resistant); experiment: as above; type: cell-based; settings: Staphylococcus aureus, 18 h
Method: as §1, §2

[6] = system: E. coli UBMS 89-2 (sensitive); experiment: as above; type: cell-based; settings: Escherichia coli, Muller-Hinton II agar, 18 hours at 35° C.
Method: as §1, §2

[7] = system: E. coli UBMS 88-2 (sensitive); experiment: as above; type: cell-based; settings: Escherichia coli
Method: as §1, §2

S. haemol. AVAH 88-3 = experiment: as above; type: cell-based
Method: as §1, §2

S. faecal. ATCC 29212 = experiment: as above; type: cell-based
Method: as §1, §2

[8] = system: S. aureus UBMS 88-4 (sensitive); experiment: as above; type: cell-based; settings: Staphylococcus aureus
Method: as §1, §2

[9] = system: S. aureus SMITH (MP) (sensitive); experiment: as above; type: cell-based; settings: Staphylococcus aureus
Method: as §1, §2

[10] = system: S. aureus UBMS 88-7 (tetK); experiment: microbe, parasite or virus in culture; type: cell-based; settings: Staphylococcus aureus, 18 h
Method: as §1, §2

E. coli UBMS 89-1 (tetM) = experiment: microbe, parasite or virus in culture; type: cell-based; settings: Escherichia coli, 18 h
Method: as §1, §2

[11] = system: S. aureus UBMS 90-2 (tetM); experiment: microbe, parasite or virus in culture; type: cell-based; settings: Staphylococcus aureus, 18 h
Method: as §1, §2

[12] = system: S. aureus UBMS 88-5 (tetM); experiment: microbe, parasite or virus in culture; type: cell-based; settings: Staphylococcus aureus, 18 h
Method: as §1, §2

[13] = system: S. aureus UBMS 90-1 (tetM); experiment: microbe, parasite or virus in culture; type: cell-based; settings: Staphylococcus aureus, 18 h
Method: as §1, §2

E. coli UBMS 88-1 (tetB) = experiment: microbe, parasite or virus in culture; type: cell-based; settings: Escherichia coli, 18 h
Method: as §1, §2

[14] = system: S30 extract from E. coli strain MRE 600 (tetracycline sensitive); experiment: E. coli in vitro cell free protein translation system, Wild Type S30; type: biochemical; settings: for % Inhibition Wild Type S30: 35S-methionine incorporation, 30 minutes at 37° C.
Description: (§3) E. coli in Vitro protein Translation System (Table II)
(§4) An in vitro, cell free, protein translation system using extracts from E. coli strain MRE 600 (tetracycline sensitive) and a derivative of MRE 600 containing the tetM determinant has been developed based on literature methods J. M. Pratt, Coupled Transcription-translation in Prokaryotic Cell-free Systems, Transcription and Translation, a Practical Approach, (B. D. Hames and S. J. Higgins, eds) p. 179-209, IRL Press, Oxford-Washington, 1984!.
(§5) Using the system described above, the tetracycline compounds of the present invention are tested for their ability to inhibit protein synthesis in vitro. Briefly, each 10 μl reaction contains S30 extract (a whole extract) made from either tetracycline sensitive cells or an isogenic tetracycline resistant (tetM) strain, low molecular weight components necessary for transcription and translation (i.e., ATP and GTP), a mix of 19 amino acids (no methionine), ^35 S labeled methionine, DNA template (either pBR322 or pUC119), and either DMSO (control) or the novel tetracycline compound to be tested ("novel TC") dissolved in DMSO.
(§6) The reactions are incubated for 30 minutes at 37° C. Timing is initiated with the addition of the S30 extract, the last component to be added. After 30 minutes, 2.5 μl of the reaction is removed and mixed with 0.5 ml of 1N NaOH to destroy RNA and tRNA. Two to three ml of 25% trichloroacetic acid is added and the mixture incubated at room temperature for 15 minutes. The trichloroacetic acid precipitated material is collected on Whatman GF/C filters and washed with a solution of 10% trichloroacetic acid. The filters are dried and the retained radioactivity, representing incorporation of ^35 S-methionine into polypeptides, is counted using standard liquid scintillation methods.
(§7) The percent inhibition (P.I.) of protein synthesis is determined to be: [formula]

[15] = system: S30 extract from derivative of E. coli MRE 600 containing the tetM determinant; experiment: E. coli in vitro cell free protein translation system, TetM S30; type: biochemical; settings: for % Inhibition TetM S30: 35S-methionine incorporation, 30 minutes at 37° C.
Description: as §3, §4, §5, §6, §7

[16] = ATCC29213, agar dilution, Muller-Hinton II agar, 18 hours at 35° C., S. aureus ATCC 29213 (sensitive), read-out: MIC
[17] = agar dilution, Muller-Hinton II agar, 18 hours at 35° C., E. coli UBMS 88-2 (sensitive), read-out: MIC

## CN(C)[C@@H]1C(O)=C(C(N)=O)C(=O)[C@@]2(O)C(O)=C3C(=O)c4c(cc(Cl)c(NC=O)c4O)CC3CC12 (stereo partly shown) [A HCL]
[1]
  ED50: 4 to 8 mg/kg

## CN(C)[C@@H]1C(O)=C(C(N)=O)C(=O)[C@@]2(O)C(O)=C3C(=O)c4c(O)cc(Cl)c(N)c4CC3CC12 (stereo partly shown) [Compound C, 7-Amino-8-chloro-4-(dimethylamino)-1,4-4a,5,5a,6,11,12a-octahydro-3,10,12,12a-tetrahydroxy-1,11-dioxo-2-naphthacenecarboxamide hydrochloride]
[2]; [16]
  MIC: 0.12 µg/mL
E. coli ATCC 25922; ATCC25922, agar dilution, Muller-Hinton II agar, 18 hours at 35° C., E. coli ATCC 25922, read-out: MIC
  MIC: 2 µg/mL
[3]
  MIC: 0.12 µg/mL
Enteroc. spp. 12201
  MIC: 32 µg/mL
[4]
  MIC: > 32 µg/mL
[5]
  MIC: > 32 µg/mL
[6]
  MIC: 4 µg/mL
[7]; [17]
  MIC: 2 µg/mL
S. haemol. AVAH 88-3; agar dilution, Muller-Hinton II agar, 18 hours at 35° C., S. haemol. AVAH 88-3, read-out: MIC
  MIC: 1 µg/mL
S. faecal. ATCC 29212; 18 h
  MIC: 8 µg/mL
[8]; agar dilution, Muller-Hinton II agar, 18 hours at 35° C., S. aureus UBMS 88-4 (sensitive), read-out: MIC
  MIC: 0.5 µg/mL
[9]; agar dilution, Muller-Hinton II agar, 18 hours at 35° C., S. aureus SMITH (MP) (sensitive), read-out: MIC
  MIC: 0.25 µg/mL
[10]
  MIC: > 32 µg/mL
E. coli UBMS 89-1 (tetM)
  MIC: 32 µg/mL
[11]
  MIC: 8 µg/mL
[12]
  MIC: 32 µg/mL
[13]
  MIC: 32 µg/mL
E. coli UBMS 88-1 (tetB)
  MIC: > 32 µg/mL

## CN(C)c1c(Cl)c(NC=O)c(O)c2c1CC1CC3C(N(C)C)C(O)=C(C(N)=O)C(=O)C3(O)C(O)=C1C2=O.O=S(=O)(O)O (stereo not shown) [F, 8-Chloro-4,7-bis(dimethylamino)-9-(formylamino)-1,4,4a,5,5a,6,11,12a-octahydro-3,10,12,12a-tetrahydroxy-1,11-dioxo-2-naphthacenecarboxamide sulfate]
[2]; ATCC29213, 18 h
  MIC: 0.06 µg/mL
E. coli ATCC 25922; ATCC25922, 18 h
  MIC: 0.25 µg/mL
[3]
  MIC: 0.06 µg/mL
Enteroc. spp. 12201
  MIC: 0.5 µg/mL
[4]
  MIC: 8 µg/mL
[5]
  MIC: 8 µg/mL
[6]
  MIC: 1 µg/mL
[7]; 18 h
  MIC: 1 µg/mL
S. haemol. AVAH 88-3; 18 h
  MIC: 0.12 µg/mL
S. faecal. ATCC 29212; 18 h
  MIC: 0.06 µg/mL
[8]; 18 h
  MIC: 0.12 µg/mL
[9]; 18 h
  MIC: 0.06 µg/mL
[10]
  MIC: 4 µg/mL
E. coli UBMS 89-1 (tetM)
  MIC: 0.5 µg/mL
[11]
  MIC: 0.12 µg/mL
[12]
  MIC: 0.25 µg/mL
[13]
  MIC: 0.5 µg/mL
E. coli UBMS 88-1 (tetB)
  MIC: > 32 µg/mL

## CN(C)c1c(Cl)c(N)c(O)c2c1CC1CC3[C@H](N(C)C)C(O)=C(C(N)=O)C(=O)[C@@]3(O)C(O)=C1C2=O (stereo partly shown) [H, 9-Amino-8-chloro-4,7-(dimethylamino)-1,4-4a,5,5a,6,11,12a-octahydro-3,10,12,12a-tetrahydroxy-1,11-dioxo-2-naphthacenecarboxamide sulfate]
[1]
  ED50: 4 to 8 mg/kg
[14]; Conc. 0.1 mg/ml
  % Inhibition Wild Type S30: 52%
[14]; Conc. 0.3 mg/ml
  % Inhibition Wild Type S30: 62%
[14]; Conc. 1.0 mg/ml
  % Inhibition Wild Type S30: 57%
[2]; [16]
  MIC: < 0.015 µg/mL
E. coli ATCC 25922; ATCC25922, 18 h
  MIC: 4 µg/mL
[3]
  MIC: 0.12 µg/mL
Enteroc. spp. 12201
  MIC: 4 µg/mL
[4]
  MIC: 1 µg/mL
[5]
  MIC: 4 µg/mL
[6]
  MIC: 16 µg/mL
[7]; [17]
  MIC: 8 µg/mL
S. haemol. AVAH 88-3; 18 h
  MIC: 0.12 µg/mL
S. faecal. ATCC 29212; agar dilution, Muller-Hinton II agar, 18 hours at 35° C., S. faecal. ATCC 29212, read-out: MIC
  MIC: 0.5 µg/mL
[8]; 18 h
  MIC: 0.12 µg/mL
[9]; 18 h
  MIC: 0.06 µg/mL
[15]; Conc. 0.1 mg/ml
  % Inhibition TetM S30: 19%
[15]; Conc. 0.3 mg/ml
  % Inhibition TetM S30: 21%
[15]; Conc. 1.0 mg/ml
  % Inhibition TetM S30: 29%
[10]
  MIC: 0.25 µg/mL
[11]
  MIC: 0.5 µg/mL
[12]
  MIC: 1 µg/mL
[13]
  MIC: 2 µg/mL
E. coli UBMS 88-1 (tetB)
  MIC: > 32 µg/mL

## CN(C)[C@@H]1C(=O)C(C(N)=O)=C(O)[C@@]2(O)C(=O)C3=C(O)c4c(O)cccc4[C@@](C)(O)[C@H]3C[C@@H]12 [K, Tetracycline hydrochloride, reference compound]
[14]; cell-free extracts from tetracycline susceptible strain MRE600
  inhibition of protein synthesis, in words: inhibited
[2]; ATCC29213, 18 h
  MIC: ≤ 0.015 µg/mL
E. coli ATCC 25922; ATCC25922, 18 h
  MIC: 0.5 µg/mL
[3]
  MIC: 0.06 µg/mL
Enteroc. spp. 12201
  MIC: 32 µg/mL
[4]
  MIC: > 32 µg/mL
[5]
  MIC: > 32 µg/mL
[6]
  MIC: 1 µg/mL
[7]; 18 h
  MIC: 0.25 µg/mL
S. haemol. AVAH 88-3; 18 h
  MIC: 1 µg/mL
S. faecal. ATCC 29212; 18 h
  MIC: 16 µg/mL
[8]; 18 h
  MIC: 0.12 µg/mL
[9]; 18 h
  MIC: 0.06 µg/mL
[15]; cell-free extracts from strain MRE600 (tetM)
  inhibition of protein synthesis, in words: resistant
[10]
  MIC: > 32 µg/mL
E. coli UBMS 89-1 (tetM)
  MIC: 16 µg/mL
[11]
  MIC: 32 µg/mL
[12]
  MIC: > 32 µg/mL
[13]
  MIC: > 32 µg/mL
E. coli UBMS 88-1 (tetB)
  MIC: > 32 µg/mL

## CCN(CC)c1c(Cl)c(N)c(O)c2c1CC1CC3[C@H](N(C)C)C(O)=C(C(N)=O)C(=O)[C@@]3(O)C(O)=C1C2=O (stereo partly shown) [M]
[1]
  ED50: > 16 mg/kg
